In ChEMBL document CHEMBL1156020, “Synthesis and antiviral activity of HCV NS3/4A peptidomimetic boronic acid inhibitors” (Bioorg Med Chem Lett, 2009):

What was measured:
[1] = tested on: Hepatitis C virus; assay: Inhibition of HCV1b con1 NS3/4A protease after 20 mins by FRET-based assay; set-up: species or system Hepacivirus hominis; conditions: Con1, 20 min
[2] = tested on: Hepatitis C virus; assay: Antiviral activity against HCV infected in human Huh-luc/neo-ET cells after 72 hrs by replicon assay; type: functional, organism-based, Hepacivirus hominis
[3] = Inhibition of HCV1a wild type NS3/4A protease after 20 mins by FRET-based assay; set-up: species or system Hepatitis C virus subtype 1a
[4] = Inhibition of HCV2a wild type NS3/4A protease after 20 mins by FRET-based assay; set-up: species or system Hepatitis C virus subtype 2a
[5] = Inhibition of HCV3a wild type NS3/4A protease after 20 mins by FRET-based assay; set-up: species or system Hepatitis C virus subtype 3a
[6] = tested on: Hepatitis C virus; assay: Selectivity ratio of IC50 for HCV1b con1 wild type NS3/4A protease over IC50 for HCV1b con1 NS3/4A protease A156S mutant; set-up: species or system Hepacivirus hominis
[7] = tested on: Hepatitis C virus; assay: Selectivity ratio of IC50 for HCV1b con1 wild type NS3/4A protease over IC50 for HCV1b con1 NS3/4A protease A156T mutant; set-up: species or system Hepacivirus hominis
[8] = tested on: Hepatitis C virus; assay: Selectivity ratio of IC50 for HCV1b con1 wild type NS3/4A protease over IC50 for HCV1b con1 NS3/4A protease A156V mutant; set-up: species or system Hepacivirus hominis
[9] = tested on: Hepatitis C virus; assay: Selectivity ratio of IC50 for HCV1b con1 wild type NS3/4A protease over IC50 for HCV1b con1 NS3/4A protease R155K mutant; set-up: species or system Hepacivirus hominis
[10] = tested on: Hepatitis C virus; assay: Selectivity ratio of IC50 for HCV1b con1 wild type NS3/4A protease over IC50 for HCV1b con1 NS3/4A protease D168A mutant; set-up: species or system Hepacivirus hominis
[11] = tested on: Hepatitis C virus; assay: Selectivity ratio of IC50 for HCV1b con1 wild type NS3/4A protease over IC50 for HCV1b con1 NS3/4A protease T54A mutant; set-up: species or system Hepacivirus hominis

CCC[C@H](NC(=O)[C@@H]1C[C@@H](OC(=O)N2Cc3ccccc3C2)CN1C(=O)[C@@H](NC(=O)OCCN1CCCC1)C(C)(C)C)B1O[C@@H]2C[C@@H]3C[C@@H](C3(C)C)[C@]2(C)O1
IC50 [1]: 5 nM | EC50 [2]: > 1000 nM

CC[C@H](NC(=O)[C@@H]1C[C@@H](OC(=O)N2Cc3ccccc3C2)CN1C(=O)[C@@H](NC(=O)OC(C)(C)C)C1CCCCC1)B(O)O
IC50 [1]: 1 nM | IC50 [3]: 0.9 nM | IC50 [4]: 6 nM | IC50 [5]: 23 nM | Ratio IC50 [6]: 4 | Ratio IC50 [7]: 40 | Ratio IC50 [8]: 64 | Ratio IC50 [9]: 63 | Ratio IC50 [10]: 47 | Ratio IC50 [11]: 69 | EC50 [2]: 71 nM

CC[C@H](NC(=O)[C@@H]1C[C@@H](OC(=O)N2Cc3ccccc3C2)CN1C(=O)[C@@H](NC(=O)OC(C)(C)C)C(C)(C)C)B(O)O
IC50 [1]: 2 nM | EC50 [2]: 98 nM

CCC[C@H](NC(=O)[C@@H]1C[C@@H](OC(=O)N2Cc3ccccc3C2)CN1C(=O)[C@@H](NC(=O)NCCN(CC)CC)C(C)(C)C)B1O[C@@H]2C[C@@H]3C[C@@H](C3(C)C)[C@]2(C)O1
IC50 [1]: 27 nM | EC50 [2]: > 1000 nM

CC(C)(C)OC(=O)N[C@H](C(=O)N1C[C@H](OC(=O)N2Cc3ccccc3C2)C[C@H]1C(=O)NC1(B(O)O)CC1)C1CCCCC1
IC50 [1]: 3350 nM

CCC[C@H](NC(=O)[C@@H]1C[C@@H](OC(=O)N2Cc3ccccc3C2)CN1C(=O)[C@@H](NC(=O)OCC(C)C)C(C)(C)C)B1O[C@@H]2C[C@@H]3C[C@@H](C3(C)C)[C@]2(C)O1
IC50 [1]: 0.3 nM | EC50 [2]: 54 nM

CCC[C@H](NC(=O)[C@@H]1C[C@@H](OC(=O)N2Cc3ccccc3C2)CN1C(=O)[C@@H](NC(=O)N[C@H](CN(C)S(C)(=O)=O)C(C)(C)C)C(C)(C)C)B(O)O
IC50 [1]: 0.5 nM | IC50 [3]: 0.3 nM | IC50 [4]: 0.6 nM | IC50 [5]: 0.9 nM | Ratio IC50 [6]: <4 | Ratio IC50 [7]: <4 | Ratio IC50 [8]: 12 | Ratio IC50 [9]: 6 | Ratio IC50 [10]: <4 | Ratio IC50 [11]: 8 | EC50 [2]: 25 nM

CCC[C@H](NC(=O)[C@@H]1C[C@@H](OC(=O)N2Cc3ccccc3C2)CN1C(=O)[C@@H](NC(=O)C(O)C(C)(C)C)C(C)(C)C)B1O[C@@H]2C[C@@H]3C[C@@H](C3(C)C)[C@]2(C)O1 (some centres undefined)
IC50 [1]: 3 nM | EC50 [2]: > 1000 nM

CCC[C@H](NC(=O)[C@@H]1C[C@@H](OC(=O)N2Cc3ccccc3C2)CN1C(=O)[C@@H](NC(=O)OC(C)(C)C)C(C)(C)C)B(O)O
IC50 [1]: 1 nM | IC50 [3]: 2 nM | IC50 [4]: 21 nM | IC50 [5]: 61 nM | Ratio IC50 [6]: 5 | Ratio IC50 [7]: 70 | Ratio IC50 [8]: 158 | Ratio IC50 [9]: 109 | Ratio IC50 [10]: 61 | Ratio IC50 [11]: 121 | EC50 [2]: 69 nM

CC(C)(C)OC(=O)N[C@H](C(=O)N1C[C@H](OC(=O)N2Cc3ccccc3C2)C[C@H]1C(=O)N[C@@H](CC1CCC1)B(O)O)C(C)(C)C
IC50 [1]: 2 nM | EC50 [2]: 171 nM

CCC[C@H](NC(=O)[C@@H]1C[C@@H](OC(=O)N2Cc3ccccc3C2)CN1C(=O)[C@@H](N)C(C)(C)C)B1O[C@@H]2C[C@@H]3C[C@@H](C3(C)C)[C@]2(C)O1
IC50 [1]: 3200 nM

CCC[C@H](NC(=O)[C@@H]1C[C@@H](OC(=O)N2Cc3ccccc3C2)CN1C(=O)[C@@H](NC(=O)OC(C)(C)C)C1CCCCC1)B(O)O
IC50 [1]: 2 nM | EC50 [2]: 110 nM

CCC[C@H](NC(=O)[C@@H]1C[C@@H](OC(=O)N2Cc3ccccc3C2)CN1C(=O)[C@@H](NC(=O)OCC)C(C)(C)C)B1O[C@@H]2C[C@@H]3C[C@@H](C3(C)C)[C@]2(C)O1
IC50 [1]: 2 nM | EC50 [2]: 230 nM

CCC[C@H](NC(=O)[C@@H]1C[C@@H](OC(=O)N2Cc3ccccc3C2)CN1C(=O)[C@@H](NC(=O)OCC(C)(C)C)C(C)(C)C)B1O[C@@H]2C[C@@H]3C[C@@H](C3(C)C)[C@]2(C)O1
IC50 [1]: 0.7 nM | EC50 [2]: 41 nM

CCC[C@H](NC(=O)[C@@H]1C[C@@H](OC(=O)N2Cc3ccccc3C2)CN1C(=O)[C@@H](NS(C)(=O)=O)C(C)(C)C)B1O[C@@H]2C[C@@H]3C[C@@H](C3(C)C)[C@]2(C)O1
IC50 [1]: 11 nM | EC50 [2]: > 1000 nM

CCC[C@H](NC(=O)[C@@H]1C[C@@H](OC(=O)N2Cc3ccccc3C2)CN1C(=O)[C@@H](NC(=O)OC(C)(C)C)C(C)(C)C)B1O[C@@H]2C[C@@H]3C[C@@H](C3(C)C)[C@]2(C)O1
IC50 [1]: 0.8 nM | EC50 [2]: 93 nM

CCC[C@H](NC(=O)[C@@H]1C[C@@H](OC(=O)N2Cc3ccccc3C2)CN1C(=O)[C@@H](NC(=O)OCCF)C(C)(C)C)B1O[C@@H]2C[C@@H]3C[C@@H](C3(C)C)[C@]2(C)O1
IC50 [1]: 2 nM | EC50 [2]: 408 nM
